{"source": "patent US20200353038A1", "about": "“PIF-TRANSFECTED CELLS AND METHODS OF USE” (BIOINCEPT, LLC, priority 2013, published 2020)", "key": {"IDE": {"biological_target": "T1, IDE (Homo sapiens, UniProt P14735)", "T1 construct": "purchased Invitrogen", "assay": "ProtoArray binding, IDE"}, "Kv1.3b": {"test_system": "Kv1.3b", "sequence (Q13303 40-367 limits assumed)": "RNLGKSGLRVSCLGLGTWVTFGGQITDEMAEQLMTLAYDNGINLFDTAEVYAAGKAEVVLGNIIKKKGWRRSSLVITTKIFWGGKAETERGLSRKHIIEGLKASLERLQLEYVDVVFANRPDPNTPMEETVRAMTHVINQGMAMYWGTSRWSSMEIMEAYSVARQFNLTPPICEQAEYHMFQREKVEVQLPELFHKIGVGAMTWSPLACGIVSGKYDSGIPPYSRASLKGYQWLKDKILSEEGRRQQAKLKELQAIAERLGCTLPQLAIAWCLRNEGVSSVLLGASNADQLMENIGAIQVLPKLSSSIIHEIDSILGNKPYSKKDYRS", "assay": "ProtoArray binding, Kv1.3b", "design": "species or system human"}, "[1]": {"test_system": "9000 human protein targets", "assay": "Alexa-PIF interaction with ProtoArray Human Protein Microarrays v5.0", "format": "binding", "details": "PIF-Alexa 647 250 nM and 2.5 pM; protein not named"}, "PBMCs": {"test_system": "PBMCs", "excerpt": "Blood samples without identifiers were obtained from males and nonpregnant females after obtaining consent at MDSPS, WA. The studies were approved by the ethical committee at the institute. From the excess specimen, PBMCs were isolated using standard Ficoll Hypaque, a density gradient method. […] Samples were collected in duplicate at 24 and 48 hrs and used for global mRNA analysis.\nAfter culture, PBMCs were collected and the chemically fragmented cRNA was then hybridized on Affymetrix HGU133 Plus 2.0 human chips in a GeneChip Hybridization Oven 640 (Affymetrix) and screened for 18,400 human genes and expressed-sequence tags, followed by fluorescence labeling with Fluidics Station 450 (Affymetrix) and optical scanning with an Affymetrix GeneChip Scanner 3000 (Codon Biosciences, LP, Houston, Tex.). P0.05 and >2-fold changes were considered as significant. Data is deposited at NCBI Geo (GSE18291).\nFor gene experiments, data was first analyzed using student's t-test, with p<0.05 results, followed by fold-change testing, with a cutoff 2-fold only reported."}, "female Swiss mice": {"test_system": "female Swiss mice", "details": "Alzet pump subcutaneously, PIF 4.2 mg/ml (1 mg/kg/die), read days 14-16 pi", "protocol": "30 Swiss female mice and 30 Swiss male mice, 8-10 weeks old, were matched overnight for three consecutive days. The next morning, the presence of a vaginal plug was verified. 20 female Swiss mice positive for the vaginal plug were selected for the experiment.\nMice at days 1-3 post-insemination (pi) were anesthetized with ketamine and domitor 200 μl. […] The mice were located singularly in separated cages. […] At days 6-8 pi, the mice were treated with LPS […] or with PBS. At days 14-16 pi, the mice were euthanized and investigated for vital fetuses and for aborts. Mice with no vital fetuses nor signs of abortion were considered to carry 10 aborts for statistical purposes. The groups were compared with Fisher exact test, p<0.05 was considered significant (FIG. 22)."}, "[2]": {"biological_target": "Tissue-Specific Transplantation Antigen P35 (FX Enzyme) (Homo sapiens, UniProt Q13630)", "sequence (Q13630 whole entry)": "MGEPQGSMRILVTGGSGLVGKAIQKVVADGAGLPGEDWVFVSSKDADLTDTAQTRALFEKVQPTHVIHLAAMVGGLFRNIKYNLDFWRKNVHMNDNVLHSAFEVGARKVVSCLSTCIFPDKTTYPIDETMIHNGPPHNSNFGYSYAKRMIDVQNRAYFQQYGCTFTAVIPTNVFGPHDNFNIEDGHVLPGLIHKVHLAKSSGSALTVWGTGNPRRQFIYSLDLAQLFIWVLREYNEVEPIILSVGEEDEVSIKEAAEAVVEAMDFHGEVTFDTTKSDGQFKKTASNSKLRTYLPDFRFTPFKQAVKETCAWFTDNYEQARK", "details": "ProtoArray", "protocol": "(§1) Unbound probe was washed off, and arrays were assessed by a fluorescence microarray scanner. […] As a negative control, an array was incubated with wash buffer while calmodulin kinase was used as a positive control detected by Alexa Fluor 647-conjugated anti-VS antibody."}, "DAPK3, (ZIPK)": {"biological_target": "DAPK3, (ZIPK) (Homo sapiens, UniProt O43293)", "sequence (O43293 whole entry)": "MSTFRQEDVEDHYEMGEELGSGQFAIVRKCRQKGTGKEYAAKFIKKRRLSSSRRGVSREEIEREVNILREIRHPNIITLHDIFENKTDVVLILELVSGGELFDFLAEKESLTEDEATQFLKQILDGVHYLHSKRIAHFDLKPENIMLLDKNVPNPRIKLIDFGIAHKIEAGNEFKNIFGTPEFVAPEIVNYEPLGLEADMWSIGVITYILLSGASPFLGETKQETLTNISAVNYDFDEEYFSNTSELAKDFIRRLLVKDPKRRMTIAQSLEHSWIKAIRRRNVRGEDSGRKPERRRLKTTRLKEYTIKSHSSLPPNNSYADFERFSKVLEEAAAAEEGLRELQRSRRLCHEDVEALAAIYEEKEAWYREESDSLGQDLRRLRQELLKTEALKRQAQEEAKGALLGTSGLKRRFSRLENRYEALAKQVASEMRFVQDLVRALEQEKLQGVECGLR", "details": "ProtoArray, minor binding target", "protocol": "as §1"}, "ITK": {"biological_target": "ITK (Homo sapiens, UniProt Q08881)", "sequence (Q08881 whole entry)": "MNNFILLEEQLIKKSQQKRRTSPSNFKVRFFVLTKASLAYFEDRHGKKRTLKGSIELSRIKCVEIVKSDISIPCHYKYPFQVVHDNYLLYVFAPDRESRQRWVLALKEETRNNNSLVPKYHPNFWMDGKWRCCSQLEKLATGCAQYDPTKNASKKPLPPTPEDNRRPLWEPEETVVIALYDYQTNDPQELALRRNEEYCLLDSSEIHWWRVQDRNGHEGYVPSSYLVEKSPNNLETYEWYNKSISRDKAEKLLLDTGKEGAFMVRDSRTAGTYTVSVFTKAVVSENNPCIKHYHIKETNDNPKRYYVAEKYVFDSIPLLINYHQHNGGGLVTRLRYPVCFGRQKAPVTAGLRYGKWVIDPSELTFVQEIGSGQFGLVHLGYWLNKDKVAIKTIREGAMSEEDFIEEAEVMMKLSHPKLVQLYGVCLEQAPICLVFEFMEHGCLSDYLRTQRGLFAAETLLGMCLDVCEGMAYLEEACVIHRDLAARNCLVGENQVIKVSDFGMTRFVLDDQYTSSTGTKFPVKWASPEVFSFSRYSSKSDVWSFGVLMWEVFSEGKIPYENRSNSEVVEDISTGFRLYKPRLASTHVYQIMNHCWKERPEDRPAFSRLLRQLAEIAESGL", "details": "ProtoArray", "protocol": "as §1"}, "Cass4": {"biological_target": "Cass4 (Homo sapiens, UniProt Q9NQ75)", "sequence (Q9NQ75 whole entry)": "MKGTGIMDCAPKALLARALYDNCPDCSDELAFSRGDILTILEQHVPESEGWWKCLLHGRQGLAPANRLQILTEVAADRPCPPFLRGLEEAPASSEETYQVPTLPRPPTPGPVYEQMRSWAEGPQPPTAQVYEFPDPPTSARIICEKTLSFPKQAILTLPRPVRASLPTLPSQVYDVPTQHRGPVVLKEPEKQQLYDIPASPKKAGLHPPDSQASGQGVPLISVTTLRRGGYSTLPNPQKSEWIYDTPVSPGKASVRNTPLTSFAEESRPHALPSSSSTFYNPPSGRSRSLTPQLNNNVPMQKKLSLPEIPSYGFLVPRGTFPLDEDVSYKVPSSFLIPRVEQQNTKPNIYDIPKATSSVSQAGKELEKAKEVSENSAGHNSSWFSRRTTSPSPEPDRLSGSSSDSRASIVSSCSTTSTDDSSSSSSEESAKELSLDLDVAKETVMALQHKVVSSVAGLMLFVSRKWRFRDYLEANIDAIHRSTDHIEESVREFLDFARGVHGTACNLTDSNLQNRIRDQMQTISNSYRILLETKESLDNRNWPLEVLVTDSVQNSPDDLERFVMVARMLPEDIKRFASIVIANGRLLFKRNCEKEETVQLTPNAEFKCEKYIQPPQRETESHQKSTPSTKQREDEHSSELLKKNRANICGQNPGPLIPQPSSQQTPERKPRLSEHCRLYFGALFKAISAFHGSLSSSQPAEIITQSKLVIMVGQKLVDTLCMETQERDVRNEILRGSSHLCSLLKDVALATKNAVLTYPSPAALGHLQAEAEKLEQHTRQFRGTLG", "details": "ProtoArray, minor binding target", "protocol": "as §1"}, "[3]": {"biological_target": "outer dense fiber of the sperm tail-2 (ODF2L) (Homo sapiens, UniProt Q9ULJ1)", "sequence (Q9ULJ1 whole entry)": "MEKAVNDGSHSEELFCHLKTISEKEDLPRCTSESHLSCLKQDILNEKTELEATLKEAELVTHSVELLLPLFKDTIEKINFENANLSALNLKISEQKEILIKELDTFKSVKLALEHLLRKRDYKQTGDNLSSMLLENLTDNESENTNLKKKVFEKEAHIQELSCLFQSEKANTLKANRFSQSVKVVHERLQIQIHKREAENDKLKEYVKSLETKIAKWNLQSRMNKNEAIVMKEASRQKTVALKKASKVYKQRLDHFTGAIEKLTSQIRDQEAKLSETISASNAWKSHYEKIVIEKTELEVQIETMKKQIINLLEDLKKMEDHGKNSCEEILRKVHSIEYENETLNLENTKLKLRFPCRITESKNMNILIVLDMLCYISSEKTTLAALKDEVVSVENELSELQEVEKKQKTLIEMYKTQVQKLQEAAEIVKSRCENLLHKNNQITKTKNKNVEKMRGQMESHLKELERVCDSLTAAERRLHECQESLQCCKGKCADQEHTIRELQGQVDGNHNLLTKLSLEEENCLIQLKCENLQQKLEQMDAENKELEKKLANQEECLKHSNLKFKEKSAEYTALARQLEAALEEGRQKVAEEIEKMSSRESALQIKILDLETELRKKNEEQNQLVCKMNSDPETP", "details": "ProtoArray, minor binding target", "protocol": "as §1"}, "[4]": {"biological_target": "Platelet-Derived Growth Factor-β(PDGFP) (Homo sapiens, UniProt P01127)", "sequence (P01127 82-190)": "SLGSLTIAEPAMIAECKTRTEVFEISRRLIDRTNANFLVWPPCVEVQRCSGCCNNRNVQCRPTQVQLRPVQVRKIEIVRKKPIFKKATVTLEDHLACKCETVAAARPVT", "details": "ProtoArray", "protocol": "as §1"}, "NEK11": {"biological_target": "NEK11 (Homo sapiens, UniProt Q8NG66)", "sequence (Q8NG66 whole entry)": "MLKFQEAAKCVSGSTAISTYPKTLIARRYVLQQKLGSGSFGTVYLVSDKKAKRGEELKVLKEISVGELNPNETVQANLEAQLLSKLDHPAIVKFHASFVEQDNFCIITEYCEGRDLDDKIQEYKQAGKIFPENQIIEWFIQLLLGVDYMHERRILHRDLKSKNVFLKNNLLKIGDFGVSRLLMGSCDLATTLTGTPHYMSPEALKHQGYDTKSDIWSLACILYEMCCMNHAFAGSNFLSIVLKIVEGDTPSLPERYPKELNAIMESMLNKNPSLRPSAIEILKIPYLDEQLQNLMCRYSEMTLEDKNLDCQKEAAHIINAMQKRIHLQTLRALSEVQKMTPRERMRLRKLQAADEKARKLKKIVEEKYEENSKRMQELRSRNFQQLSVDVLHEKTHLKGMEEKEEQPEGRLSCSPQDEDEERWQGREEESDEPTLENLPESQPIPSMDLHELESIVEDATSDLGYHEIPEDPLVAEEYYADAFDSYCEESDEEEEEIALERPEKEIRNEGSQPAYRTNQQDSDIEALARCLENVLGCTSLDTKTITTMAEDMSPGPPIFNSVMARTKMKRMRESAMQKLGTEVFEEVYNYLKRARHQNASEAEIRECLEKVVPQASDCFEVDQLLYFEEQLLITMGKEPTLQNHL", "details": "ProtoArray, minor binding target", "protocol": "as §1"}, "Clorf87": {"biological_target": "Clorf87 (Homo sapiens, UniProt Q8N0U7)", "sequence (Q8N0U7 whole entry)": "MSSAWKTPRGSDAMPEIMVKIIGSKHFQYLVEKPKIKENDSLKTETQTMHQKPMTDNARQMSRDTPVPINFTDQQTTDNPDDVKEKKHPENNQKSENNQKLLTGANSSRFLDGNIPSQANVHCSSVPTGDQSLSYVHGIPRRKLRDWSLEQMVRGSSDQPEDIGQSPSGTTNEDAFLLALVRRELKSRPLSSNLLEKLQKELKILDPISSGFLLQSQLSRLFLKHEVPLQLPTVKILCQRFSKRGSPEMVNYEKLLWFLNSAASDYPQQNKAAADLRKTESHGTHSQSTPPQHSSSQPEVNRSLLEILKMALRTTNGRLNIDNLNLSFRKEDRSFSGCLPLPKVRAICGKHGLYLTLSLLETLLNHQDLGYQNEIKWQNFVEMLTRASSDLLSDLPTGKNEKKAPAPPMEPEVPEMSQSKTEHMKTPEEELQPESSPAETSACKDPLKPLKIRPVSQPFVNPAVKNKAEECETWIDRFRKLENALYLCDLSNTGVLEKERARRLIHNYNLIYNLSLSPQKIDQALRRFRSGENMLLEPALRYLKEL", "details": "ProtoArray, minor binding target", "protocol": "as §1"}, "HEK293 cells": {"test_system": "HEK293 cells", "assay": "Transient transfection in HEK293 cells, toxicity", "format": "cell-based, human", "details": "intracellular expression, cultured for more than 72 hrs"}, "[5]": {"details": "cell state not given, PIF 50 nM"}, "[6]": {"details": "following co-activation (anti-CD3/anti-CD28), PIF 50 nM"}, "[7]": {"details": "naive cells (by context), PIF 50 nM"}, "[8]": {"details": "naive cells, PIF 50 nM, up to 48 hrs"}}, "data": [{"substance": "PIF-Alexa 647: Alexafluor647 conjugate of synthetic PIF (MVRIKPGSANKPSDD)", "values": [{"measurement": "Z score", "setting": "IDE; PIF-Alexa 647 250 nM and 2.5 pM", "value": "greater than 2"}, {"measurement": "Z score", "setting": "Kv1.3b; Kv1.3b two variants, PIF-Alexa 647 250 nM and 2.5 pM", "value": "greater than 2"}, {"measurement": "Z-Score of one of the 11 interacting proteins", "setting": "[1]", "value": "greater than 3"}]}, {"substance": "MVRIKPGSANKPSDD [PIF]", "values": [{"measurement": "IDE encoding gene expression", "setting": "PBMCs; PBMCs exposed to PIF", "value": "not affected"}, {"measurement": "Kv1.3b channel genes expression", "setting": "PBMCs; PBMCs exposed to PIF", "value": "only minimally affected"}, {"measurement": "six additional macropain genes family members, expression (FIG. 21)", "setting": "PBMCs; PBMCs, PIF 50 nM", "value": "upregulated"}, {"measurement": "ADAM 17 gene expression", "setting": "PBMCs; activated cells (by context), PIF 50 nM", "value": "−2.2", "unit": "fold"}, {"measurement": "CDC42 gene expression", "setting": "PBMCs; activated cells, PIF 50 nM", "value": "−2.2", "unit": "fold"}, {"measurement": "MCM2 gene expression", "setting": "PBMCs; activated cells, PIF 50 nM", "value": 2.8, "unit": "fold"}, {"measurement": "SPEC 1 gene expression", "setting": "PBMCs; activated cells, PIF 50 nM", "value": "−2.2", "unit": "fold"}, {"measurement": "TSTA3 (FX) gene expression", "setting": "PBMCs; activated cells, PIF 50 nM", "value": 3.6, "unit": "fold"}, {"measurement": "cell division cycle 25A (CDC25A) gene expression", "setting": "PBMCs; activated cells, PIF 50 nM", "value": 6, "unit": "fold"}, {"measurement": "osteonectin gene expression", "setting": "PBMCs; activated cells, PIF 50 nM", "value": "−2.2", "unit": "fold"}, {"measurement": "H2A O/L gene expression (decrease)", "setting": "PBMCs; [5]", "value": 2, "unit": "fold"}, {"measurement": "H2A gene expression (decrease)", "setting": "PBMCs; [5]", "value": 4.2, "unit": "fold"}, {"measurement": "H3F3A gene expression", "setting": "PBMCs; [5]", "value": "−3", "unit": "fold"}, {"measurement": "ATP1B1 gene expression", "setting": "PBMCs; following activation, PIF 50 nM", "value": "−2.4", "unit": "fold"}, {"measurement": "IGFBP6 gene expression", "setting": "PBMCs; [6]", "value": "−2.4", "unit": "fold"}, {"measurement": "UDP-glucose dehydrogenase (UGDH) gene expression", "setting": "PBMCs; [6]", "value": "−2", "unit": "fold"}, {"measurement": "insulin receptor (INSR) gene expression", "setting": "PBMCs; [6]", "value": "−2.8", "unit": "fold"}, {"measurement": "macropain 26S subunit, non-ATPase, 10 (PSMD10) gene expression", "setting": "PBMCs; [6]", "value": 2.4, "unit": "fold"}, {"measurement": "SCN12 gene expression", "setting": "PBMCs; [7]", "value": 5.4, "unit": "fold"}, {"measurement": "SCNA1 (Na+ voltage-gated Al) gene expression", "setting": "PBMCs; [7]", "value": 7.8, "unit": "fold"}, {"measurement": "ITK expression, in words", "setting": "PBMCs; naive cells as printed (last sentence of b342)", "value": "mildly decreased"}, {"measurement": "ITK gene expression", "setting": "PBMCs; naive cells, PIF 50 nM", "value": 1.6, "unit": "fold"}, {"measurement": "K+ channel (KCNK4) gene expression", "setting": "PBMCs; naive cells, PIF 50 nM", "value": 2.8, "unit": "fold"}, {"measurement": "IGF-binding protein-3 (IGF219 BP3) gene expression", "setting": "PBMCs; [8]", "value": 4.6, "unit": "fold"}, {"measurement": "insulin-like growth factor-1 (IGF1) gene expression", "setting": "PBMCs; [8]", "value": 2.8, "unit": "fold"}, {"measurement": "binding to IDE, in words", "setting": "IDE; ProtoArray", "value": "prime PIF peptide target"}, {"measurement": "LPS-induced abortion", "setting": "female Swiss mice; LPS 0.1 pg/gr days 6-8 pi", "value": "decreases"}, {"measurement": "anesthesia-induced abortion", "setting": "female Swiss mice; ketamine and domitor", "value": "prevents"}, {"measurement": "binding to Kv1.3b channels, in words", "setting": "Kv1.3b; ProtoArray", "value": "targets"}, {"measurement": "binding to FX enzyme, in words", "setting": "[2]", "value": "Targets"}, {"measurement": "binding to DAPK3 (ZIPK), in words", "setting": "DAPK3, (ZIPK)", "value": "targets"}, {"measurement": "binding to ITK, in words", "setting": "ITK", "value": "Targets"}, {"measurement": "binding to Cass4, in words", "setting": "Cass4", "value": "target"}, {"measurement": "binding to ODF2L, in words", "setting": "[3]", "value": "observed"}, {"measurement": "binding to PDGFb, in words", "setting": "[4]", "value": "Targets"}, {"measurement": "binding to NEK11, in words", "setting": "NEK11", "value": "bind"}, {"measurement": "binding to Clorf87, in words", "setting": "Clorf87", "value": "target"}]}, {"substance": "DYKDDDDKGGGMVRIKPGSANKPSDDGGYPYDVPDYA (FLAG-(Gly)2-PIF-(Gly)2-HA) [FLAG-HA tagged PIF peptide]", "values": [{"measurement": "toxicity or cell death of transfected cells", "setting": "HEK293 cells", "value": "without signs of toxicity or cell death"}]}]}
